# Where a name gives a salt, the structure may show the parent alone.
# Target: ATM (Homo sapiens (Human), UniProt Q13315)
# Assay: ATM in Cell Western Assay (pKAP1 in etoposide-treated MCF-7 cells)
# Format: cell-based
# Conditions: MCF-7 cells, etoposide 100 μM, 1 hr, pKAP1 readout
# Experimental: Assay of Compounds ATM and DNA-PK Inhibition
# ATM in Cell Western Assay:
# Next day, add corresponding concentration of compounds using pin tool (Echo 550), the final top concentration is 1 μM, 3-fold series dilution, total 10 doses. Then add etoposide (Sigma, #E1383) to a final concentration of 100 μM. Incubate at 37° C. for 1 hr. Fix cells by adding 25 μL of fixing solution (8% paraformaldehyde) for 20 minutes at ambient temperature. Permeabilize cells for 5 washes with 1×PBS (phosphate buffered saline) containing 0.1% Triton X-100; each wash is for 5 minutes. […] The next day, wash the plate 5 times with 1×PBST (1×PBS containing 0.1% Tween-20). […] Wash the cells for 5 times with 1×PBST (1×PBS containing 0.1% Tween-20) at ambient temperature, using gentle shaking in the dark. After the last wash
# remove wash solution, turn plate upside down onto a thin paper towel and centrifuge at 1000 rpm for 1 min to absorb all wash buffer. Clean the bottom of plate with moist lint free paper. Scan plate immediately using ODYSSEY CLx (LI-COR) for the best results.
# ATM, sequence (Q13315 whole entry): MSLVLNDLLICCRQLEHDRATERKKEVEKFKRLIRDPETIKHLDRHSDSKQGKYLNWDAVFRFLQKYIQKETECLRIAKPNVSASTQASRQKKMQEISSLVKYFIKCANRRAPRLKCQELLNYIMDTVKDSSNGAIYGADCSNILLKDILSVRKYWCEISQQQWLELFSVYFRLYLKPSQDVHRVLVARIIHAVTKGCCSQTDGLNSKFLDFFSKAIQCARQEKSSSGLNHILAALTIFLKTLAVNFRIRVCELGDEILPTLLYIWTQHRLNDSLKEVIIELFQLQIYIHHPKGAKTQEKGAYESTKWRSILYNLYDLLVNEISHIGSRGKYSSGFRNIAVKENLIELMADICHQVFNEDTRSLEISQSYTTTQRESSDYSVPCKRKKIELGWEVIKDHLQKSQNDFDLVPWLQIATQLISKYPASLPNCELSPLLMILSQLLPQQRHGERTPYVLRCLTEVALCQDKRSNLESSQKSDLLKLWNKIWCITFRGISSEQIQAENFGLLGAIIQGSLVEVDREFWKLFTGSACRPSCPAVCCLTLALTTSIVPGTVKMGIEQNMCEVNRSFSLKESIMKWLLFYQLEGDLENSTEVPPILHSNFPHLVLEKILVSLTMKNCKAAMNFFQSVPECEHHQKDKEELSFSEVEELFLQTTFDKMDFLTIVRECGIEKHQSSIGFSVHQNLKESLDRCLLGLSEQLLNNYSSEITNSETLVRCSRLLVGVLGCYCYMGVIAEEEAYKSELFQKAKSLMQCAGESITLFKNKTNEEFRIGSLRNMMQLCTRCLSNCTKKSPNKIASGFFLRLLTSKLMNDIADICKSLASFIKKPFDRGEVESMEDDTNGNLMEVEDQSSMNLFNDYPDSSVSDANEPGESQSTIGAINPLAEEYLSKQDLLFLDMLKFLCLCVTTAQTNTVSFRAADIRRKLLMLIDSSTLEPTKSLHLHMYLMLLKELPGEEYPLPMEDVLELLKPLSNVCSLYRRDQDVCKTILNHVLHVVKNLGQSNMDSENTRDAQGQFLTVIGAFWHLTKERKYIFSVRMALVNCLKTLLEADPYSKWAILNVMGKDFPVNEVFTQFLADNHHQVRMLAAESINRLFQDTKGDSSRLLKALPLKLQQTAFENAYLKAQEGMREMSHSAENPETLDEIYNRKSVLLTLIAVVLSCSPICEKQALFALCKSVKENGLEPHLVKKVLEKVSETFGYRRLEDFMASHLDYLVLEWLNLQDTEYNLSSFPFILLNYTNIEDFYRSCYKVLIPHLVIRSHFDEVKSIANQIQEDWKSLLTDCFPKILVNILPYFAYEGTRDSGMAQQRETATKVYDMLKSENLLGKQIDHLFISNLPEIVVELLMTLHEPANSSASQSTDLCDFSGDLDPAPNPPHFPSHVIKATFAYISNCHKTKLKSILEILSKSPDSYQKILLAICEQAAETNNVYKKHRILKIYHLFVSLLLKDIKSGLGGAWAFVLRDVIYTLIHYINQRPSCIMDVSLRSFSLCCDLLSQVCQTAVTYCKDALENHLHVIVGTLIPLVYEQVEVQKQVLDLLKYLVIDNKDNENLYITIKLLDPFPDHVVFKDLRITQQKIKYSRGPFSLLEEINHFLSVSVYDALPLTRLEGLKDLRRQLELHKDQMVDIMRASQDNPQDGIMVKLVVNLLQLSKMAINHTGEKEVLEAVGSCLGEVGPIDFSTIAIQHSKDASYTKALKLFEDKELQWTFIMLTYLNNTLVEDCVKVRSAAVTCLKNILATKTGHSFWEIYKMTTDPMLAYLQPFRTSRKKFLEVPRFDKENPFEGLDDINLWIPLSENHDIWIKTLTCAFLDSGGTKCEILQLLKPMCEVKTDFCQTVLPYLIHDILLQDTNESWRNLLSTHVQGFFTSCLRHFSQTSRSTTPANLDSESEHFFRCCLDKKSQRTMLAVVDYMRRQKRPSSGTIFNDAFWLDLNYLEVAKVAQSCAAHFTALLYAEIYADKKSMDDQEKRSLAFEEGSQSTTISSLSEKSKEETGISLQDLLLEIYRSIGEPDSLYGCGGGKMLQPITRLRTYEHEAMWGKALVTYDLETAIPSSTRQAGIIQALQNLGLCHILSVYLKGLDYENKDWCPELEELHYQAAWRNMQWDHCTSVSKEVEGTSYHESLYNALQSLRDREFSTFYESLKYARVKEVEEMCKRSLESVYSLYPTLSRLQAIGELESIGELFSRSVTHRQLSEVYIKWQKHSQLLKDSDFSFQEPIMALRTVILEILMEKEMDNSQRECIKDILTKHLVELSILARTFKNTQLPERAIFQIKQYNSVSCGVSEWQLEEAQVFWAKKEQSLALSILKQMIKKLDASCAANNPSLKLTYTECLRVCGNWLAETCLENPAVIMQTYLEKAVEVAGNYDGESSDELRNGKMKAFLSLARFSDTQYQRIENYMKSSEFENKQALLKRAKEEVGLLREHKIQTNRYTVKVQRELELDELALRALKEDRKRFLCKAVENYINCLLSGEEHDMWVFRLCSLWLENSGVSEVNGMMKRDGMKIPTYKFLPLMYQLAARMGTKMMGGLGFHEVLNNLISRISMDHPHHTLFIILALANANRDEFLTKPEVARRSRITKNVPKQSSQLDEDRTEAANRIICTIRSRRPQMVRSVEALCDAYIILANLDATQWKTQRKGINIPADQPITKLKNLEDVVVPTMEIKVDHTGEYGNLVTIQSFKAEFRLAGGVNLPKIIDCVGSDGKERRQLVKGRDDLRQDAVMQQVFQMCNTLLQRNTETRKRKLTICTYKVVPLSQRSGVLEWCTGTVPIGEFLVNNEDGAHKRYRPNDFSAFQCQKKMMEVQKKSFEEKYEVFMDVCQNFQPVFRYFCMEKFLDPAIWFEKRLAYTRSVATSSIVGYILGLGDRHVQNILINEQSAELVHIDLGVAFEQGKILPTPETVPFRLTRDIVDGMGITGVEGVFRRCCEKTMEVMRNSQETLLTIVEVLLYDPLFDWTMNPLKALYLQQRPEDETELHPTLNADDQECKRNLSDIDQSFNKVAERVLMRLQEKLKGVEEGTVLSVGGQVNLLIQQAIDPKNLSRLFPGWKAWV
row,Structure (SMILES),IC50 [nM]
1,"CN1C(=O)C2(CC2)c2c1cnc1ccc(-c3cncnc3)cc21 [Example 51, 3′-Methyl-8′-(pyrimidin-5-yl)spiro[cyclopropane-1,1′-pyrrolo [2,3-c]quinolin]-2′(3′-H)-one]",> 100
2,"CN(C)CCCOc1ncc(-c2ccc3ncc4c(c3c2)C2(CC2)C(=O)N4C)cc1C(N)=O [Example 52, 2-(3-(Dimethylamino)propoxy)-5-(3′-methyl-2′-oxo-2′,3′-dihydrospiro[cyclopropane-1,1′-pyrrolo[2,3-c]quinolin]-8′-yl)nicotinamide]",> 100
3,"CN(C)CCCOc1ncc(-c2ccc3ncc4c(c3c2)C2(CC2)C(=O)N4C)cc1Cl [Example 55, 8′-(5-Chloro-6-(3-(dimethylamino)propoxy)pyridin-3-yl)-3 methylspiro[cyclopropane-1,1′-pyrrolo[2,3-c]quinolin]-2′(3′-H)-one]",> 100
4,"CN1C(=O)C2(CC2)c2c1cnc1ccc(-c3cnc(OCCCN4CCCC4)c(NS(=O)(=O)C4CC4)c3)cc21 [Example 60, N-(5-(3-Methyl-2′-oxo-2′,3′-dihydrospiro [cyclopropane-1,1′-pyrrolo[2,3-c]quinolin]-8′-yl)-2-(3-(pyrrolidin-1-yl)propoxy)pyridin-3-yl) cyclopropanesulfonamide]",1 to 100
5,"CN(C)CCCOc1ncc(-c2ccc3ncc4c(c3c2)C2(CC2)C(=O)N4C)cc1-c1ccccc1 [Example 72, 8′-(6-(3-(Dimethylamino)propoxy)-5-phenylpyridin-3-yl)-3′-methylspiro[cyclopropane-1,1′-pyrrolo[2,3-c]quinolin]-2′(3′-H)-one]",> 100
6,"CN(C)CCCOc1ncc(-c2ccc3ncc4c(c3c2)N(C)C2(CC2)C(=O)N4C)cc1NS(=O)(=O)c1ccccc1 [Example 74, N-(5-(1′,4′-Dimethyl-3′-oxo-34′-dihydro-1′H-spiro[cyclopropane-1,2′-pyrazino[2,3-c]quinolin]-9′-yl)-2-(3-(dimethylamino)propoxy)pyridin-3-yl) benzenesulfonamide]",> 100
7,CN(C)CCCOc1ncc(-c2ccc3ncc4c(c3c2)C2(CC2)C(=O)N4C)cc1NS(=O)(=O)c1cccnc1 [Example 85],1 to 100
8,"CN(C)CCCOc1ncc(-c2ccc3ncc4c(c3c2)N(C)C2(CC2)C(=O)N4)cc1NS(=O)(=O)c1ccccc1 [Example 87, N-(2-(3-(Dimethylamino)propoxy)-5-(1′-methyl-3′-oxo-3′-,4′-dihydro-1′H-spiro[cyclopropane-1,2′-pyrazino[2,3-c]quinolin]-9′-yl)pyridin-3-yl) benzenesulfonamide]",> 100
9,"CN(C)CCCNc1ccc(-c2ccc3ncc4c(c3c2)C2(CC2)C(=O)N4C)cn1 [Example 94, 8′-(6-((3-(Dimethylamino)propyl)amino)pyridin-3-yl)-3′-methylspiro [cyclopropane-1,1′-pyrrolo[2,3-c]quinolin]-2′(3′-H)-one]",1 to 100
10,"CC(Oc1cc(-c2ccc3ncc4c(c3c2)C2(CC2)C(=O)N4C)cnc1OCCCN(C)C)c1ccccc1 (stereo not shown) [Example 95, 8′-(6-(3-(Dimethylamino)propoxy)-5-(1-phenylethoxy)pyridin-3-yl)-3′-methylspiro[cyclopropane-1,1′-pyrrolo[2,3-c]quinolin]-2′(3′-H)-one]",> 100
11,"Cc1oncc1S(=O)(=O)Nc1cc(-c2ccc3ncc4c(c3c2)C2(CC2)C(=O)N4C)cnc1OCCCN(C)C [Example 99, N-(2-(3-(Dimethylamino)propoxy)-5-(3′-methyl-2′-oxo-2′,3′-dihydrospiro [cyclopropane-1,1′-pyrrolo[2,3-c]quinolin]-8′-yl)pyridin-3-yl)-5-methylisoxazole-4-sulfonamide]",> 100
12,"CC(=O)Nc1ccc(S(=O)(=O)Nc2cc(-c3ccc4ncc5c(c4c3)C3(CC3)C(=O)N5C)cnc2OCCCN(C)C)cc1 [Example 101, N-(4-(N-(2-(3-(Dimethylamino)propoxy)-5-(3′-methyl-2′-oxo-2′,3′-dihydrospiro [cyclopropane-1,1′-pyrrolo[2,3-c]quinolin]-8′-yl)pyridin-3-yl)sulfamoyl)phenyl) acetamide]",1 to 100
13,"CN(C)CCCOc1ncc(-c2ccc3ncc4c(c3c2)C2(CCC2)C(=O)N4C)cc1NS(=O)(=O)c1ccc(OC(F)(F)F)cc1 [Example 143, N-(2-(3-(Dimethylamino)propoxy)-5-(3′-methyl-2′-oxo-2′,3′-dihydrospiro[cyclobulane-1,1′-pyrrolo[2,3-c]quinolin]-8′-yl)pyridin-3-yl)-4-(trifluoromethoxy)benzenesulfonamide hydrochloride]",1 to 100

# The next lines start with the values.
row,IC50 [nM],Structure (SMILES)
1,1 to 100,"CN(C)CCCOc1ncc(-c2ccc3ncc4c(c3c2)C2(CC2)C(=O)N4C)cc1NS(=O)(=O)c1ccc(Cl)nc1 [Example 105, 6-Chloro-N-(2-(3-(dimethylamino)propoxy)-5-(3′-methyl-2′-oxo-2′,3′-dihydrospiro[cyclopropane-1,1′-pyrrolo[2,3-c]quinolin]-8′-yl)pyridin-3-yl)pyridine-3-sulfonamide]"
2,< 0.5,CN(C)CCCOc1ncc(-c2ccc3ncc4c(c3c2)C2(CC2)C(=O)N4C)cc1NS(=O)(=O)c1ccc(C(F)(F)F)cc1 [Example 108]
3,> 100,"CN1CC(COc2ncc(-c3ccc4ncc5c(c4c3)C3(CC3)C(=O)N5C)cc2NS(=O)(=O)c2ccccc2)C1 [Example 110, N-(5-(3′-Methyl-2′-oxo-2′,3′-dihydrospiro[cyclopropane-1,1′-pyrrolo[2,3-c]quinolin]-8′-yl)-2-((1-methylazetidin-3-yl)methoxy)pyridin-3-yl)benzenesulfonamide]"
4,0.5 to 1,CN(C)CCCOc1ncc(-c2ccc3ncc4c(c3c2)C2(CC2)C(=O)N4C)cc1NS(=O)(=O)c1cccs1 [Example 120]
5,1 to 100,"CN(C)CC1CN(c2ncc(-c3ccc4ncc5c(c4c3)C3(CC3)C(=O)N5C)cc2NS(=O)(=O)C2CC2)C1 [Example 122, N-(2-(3-((Dimethylamino)methyl)azetidin-1-yl)-5-(3′-methyl-2′-oxo-2′,3′-dihydrospiro[cyclopropane-1,1′-pyrrolo[2,3-c]quinolin]-8′-yl)pyridin-3-yl)cyclopropanesulfonamide]"
6,> 100,"CN1C(=O)C2(CCC2)c2c1cnc1ccc(-c3cnc(N4CCS(=O)(=O)CC4)c(NS(=O)(=O)c4ccccc4)c3)cc21 [Example 135, N-(2-(1,1-Dioxidothiomorpholino)-5-(3′-methyl-2′-oxo-2′,3′-dihydrospiro[cyclobulane-1,1′-pyrrolo[2,3-c]quinolin]-8′-yl)pyridin-3-yl)benzenesulfonamide hydrochloride]"
7,1 to 100,CN(C)CCCOc1ncc(-c2ccc3ncc4c(c3c2)C2(CCC2)C(=O)N4C)cc1NS(=O)(=O)N1CCCc2ccccc21 [Example 139]
8,1 to 100,"CN1C(=O)C2(CC2)c2c1cnc1ccc(-c3cnc(OCCC[N+](C)(C)[O-])c(NS(=O)(=O)c4ccccc4)c3)cc21 [Example 140, N,N-Dimethyl-3-((5-(3′-methyl-2′-oxo-2′,3′-dihydrospiro[cyclopropane-1,1′-pyrrolo[2,3-c]quinolin]-8′-yl)-3-(phenylsulfonamido)pyridin-2-yl)oxy)propan-1-amine oxide]"
9,1 to 100,"Cc1ccc(S(=O)(=O)Nc2cc(-c3ccc4ncc5c(c4c3)C3(CCC3)C(=O)N5C)cnc2OCCCN2CCC(F)(F)CC2)cc1 [Example 152, hydrochloride]"
10,1 to 100,"CN(C)CCCOc1ncc(-c2ccc3ncc4c(c3c2)C2(CCC2)C(=O)N4C)cc1NS(=O)(=O)c1cc[nH]c(=O)c1 [Example 161, N-(2-(3-(Dimethylamino)propoxy)-5-(3′-methyl-2′-oxo-2′,3′-dihydrospiro[cyclobulane-1,1′-pyrrolo[2,3-c]quinolin]-8′-yl)pyridin-3-yl)-2-oxo-1,2-dihydropyridine-4-sulfonamide]"
11,1 to 100,"CN(C)CCCOc1ncc(-c2ccc3ncc4c(c3c2)C2(CCC2)C(=O)N4C)cc1NS(=O)(=O)c1cncc(C#N)c1 [Example 174, 5-Cyano-N-(2-(3-(dimethylamino)propoxy)-5-(3′-methyl-2′-oxo-2′,3′-dihydrospiro[cyclobulane-1,1′-pyrrolo[2,3-c]quinolin]-8′-yl)pyridin-3-yl)pyridine-3-sulfonamide hydrochloride]"
12,1 to 100,CCCCN(C)S(=O)(=O)Nc1cc(-c2ccc3ncc4c(c3c2)C2(CCC2)C(=O)N4C)cnc1OCCCN(C)C [Example 176]
13,1 to 100,"CN(C)CCCOc1ncc(-c2ccc3ncc4c(c3c2)C2(CCC2)C(=O)N4C)cc1NS(=O)(=O)N(C)C1CCNCC1 [Example 179, N-Methyl-N-(piperidin-4-yl)({2-[3-(dimethylamino)propoxy]-5-{3′-methyl-2′-oxo-2′,3′-dihydrospiro[cyclobutane-1,1′-pyrrolo[2,3-c]quinoline]-8-yl}pyridin-3-yl}amino)sulfonamide 2,2,2-trifluoroacetate]"
14,1 to 100,"CN(C)CCCOc1ncc(-c2ccc3ncc4c(c3c2)C2(CCC2)C(=O)N4C)cc1NS(=O)(=O)N(C)Cc1ccccc1 [Example 182, N-Benzyl-N-methyl({2-[3-(dimethylamino)propoxy]-5-{3′-methyl-2′-oxo-2′,3′-dihydrospiro[cyclobulane-1,1′-pyrrolo[2,3-c]quinoline]-8′-yl}pyridin-3-yl}amino)sulfonamide]"
15,> 100,"Cc1ccc(S(=O)(=O)N(C)c2cc(-c3ccc4ncc5c(c4c3)C3(CCC3)C(=O)N5C)cnc2OCCCN2CCCCC2)cn1 [Example 191, N,6-Dimethyl-N-(5-(3′-methyl-2′-oxo-2′,3′-dihydrospiro [cyclobulane-1,1′-pyrrolo[2,3-c]quinolin]-8′-yl)-2-(3-(piperidin-1-yl)propoxy)pyridin-3-yl)pyridine-3-sulfonamide 2,2,2-trifluoroacetate]"

# — patent US12187742B2 (XRAD Therapeutics, Inc., priority 2018, dated 2025)
